Data: US9884048B2, “ERK inhibitors” (Merck Sharp & Dohme Corp., priority 2014, dated 2018)

Biological target: phosphorylated active hERK2 enzyme (Homo sapiens (Human), UniProt P28482)
Settings: not given

Chain of phosphorylated active hERK2 enzyme (P28482 whole entry): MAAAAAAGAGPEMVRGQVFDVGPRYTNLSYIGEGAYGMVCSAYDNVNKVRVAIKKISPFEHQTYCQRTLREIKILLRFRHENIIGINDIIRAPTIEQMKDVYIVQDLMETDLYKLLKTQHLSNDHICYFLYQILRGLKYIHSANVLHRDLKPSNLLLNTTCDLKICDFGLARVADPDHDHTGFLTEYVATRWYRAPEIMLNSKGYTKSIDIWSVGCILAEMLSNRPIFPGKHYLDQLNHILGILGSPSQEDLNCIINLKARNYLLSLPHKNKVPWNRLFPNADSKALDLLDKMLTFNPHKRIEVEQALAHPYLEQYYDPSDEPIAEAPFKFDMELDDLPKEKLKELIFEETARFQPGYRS

IC50 [µM]	SMILES
0.0231	Cc1cc(-n2ncc3cc(NC(=O)N[C@H]4CCCC[C@H]4Cc4ccccc4)ncc32)ccn1 (racemic) [Example 167, Racemic cis 1-[(1S,2S) and (1R,2R)-2-benzylcyclohexyl]-3-[1-(2-methylpyridin-4-yl)-1H-pyrazolo[3,4-c]pyridin-5-yl)urea]

Same assay, conditions: read-out: ERK2 IC50; IMAP-FP assay; 0.5 nM hERK2, 30 μM ATP; 10 point titration, 3 μM starting concentration

SMILES	IC50 [µM]
Cc1cc(-n2ncc3cc(NC(=O)N[C@H]4CN(C)C[C@@H]4C4CCCCC4)ncc32)ccn1 [Example 31, 1-[(3R,4S)-4-cyclohexyl-1-methylpyrrolidin-3-yl]-3-[1-(2-methylpyridin-4-yl)-1H-pyrazolo[3,4-c]pyridin-5-yl]urea]	0.0351
Cc1cc(-n2ncc3cc(NC(=O)N[C@H]4CCC[C@@H]4OCc4ccccc4)ncc32)ccn1 [Example 154, 1-[(1S,2S)-2-(benzyloxy)cyclopentyl]-3-[1-(2-methylpyridin-4-yl)-1H-pyrazolo[3,4-c]pyridin-5-yl]urea]	0.00751
Cc1cc(-n2ncc3cc(NC(=O)N[C@H]4[C@H](c5ccccc5C)CN(C)C4(C)C)ncc32)ccn1 [Example 102, 1-[1-(2-methylpyridin-4-yl)-1H-pyrazolo[3,4-c]pyridin-5-yl]-3-[(3S,4R)-1,2,2-trimethyl-4-(2-methylphenyl)pyrrolidin-3-yl)urea]	0.235
CCN(CC)C(=O)[C@@H](NC(=O)Nc1cc2cnn(-c3ccnc(C)c3)c2cn1)c1ccccc1 [Example 144, (2S)-N,N-diethyl-2-({[1-(2-methylpyridin-4-yl)-1H-pyrazolo[3,4-c]pyridin-5-yl]carbamoyl}amino)-2-phenylethanamide]	0.0893
Cc1cc(-n2ncc3cc(NC(=O)N[C@H](COC(C)C)c4ccccc4)ncc32)ccn1 [Example 135, 1-[(1S)-2-(1-methylethoxy)-1-phenylethyl]-3-[1-(2-methylpyridin-4-yl)-1H-pyrazolo[3,4-c]pyridin-5-yl]urea]	0.000786
Cc1cc(-n2ncc3cc(NC(=O)N[C@H]4CCCC[C@@H]4N(C)C)ncc32)ccn1 [Example 143, 1-[(1S,2S)-2-(dimethylamino)cyclohexyl]-3-[1-(2-methylpyridin-4-yl)-1H-pyrazolo[3,4-c]pyridin-5-yl)urea]	0.127
Cc1cc(-n2ncc3cc(NC(=O)NCc4cnn5ccccc45)ncc32)ccn1 [Example 64, 1-[1-(2-methylpyridin-4-yl)-1H-pyrazolo[3,4-c]pyridin-5-yl]-3-(pyrazolo[1,5-a]pyridin-3-ylmethyl)urea]	0.0716
O=C(NCc1cccc(Cl)c1)Nc1cc2cnn(-c3ccncc3)c2cn1 [Example 41, 1-(3-chlorobenzyl)-3-(1-pyridin-4-yl-1H-pyrazolo[3,4-c]pyridin-5-yl)urea]	0.000499
Cc1cc(-n2ncc3cc(NC(=O)NCCOc4ccccc4F)ncc32)ccn1 [Example 87, 1-[2-(2-fluorophenoxy)ethyl]-3-[1-(2-methylpyridin-4-yl)-1H-pyrazolo[3,4-c]pyridin-5-yl)urea]	0.00638
CCCN1CC[C@@H](NC(=O)Nc2cc3cnn(-c4ccnc(C)c4)c3cn2)C1 [Example 29, 1-[1-(2-methylpyridin-4-yl)-1H-pyrazolo[3,4-c]pyridin-5-yl]-3-[(3R)-1-propylpyrrolidin-3-yl]urea]	0.453
Cc1cc(-n2ncc3cc(NC(=O)NC45CC6CC(CC(O)(C6)C4)C5)ncc32)ccn1 [Example 77, 1-(3-hydroxytricyclo[3.3.1.1~3,7~]dec-1-yl)-3-[1-(2-methylpyridin-4-yl)-1H-pyrazolo[3,4-c]pyridin-5-yl)urea]	1.88
Cc1cc(-n2ncc3cc(NC(=O)NCC(C)O)ncc32)ccn1 (centres unmarked) [Example 120, 1-(2-hydroxypropyl)-3-[1-(2-methylpyridin-4-yl)-1H-pyrazolo[3,4-c]pyridin-5-yl)urea]	0.107
Cc1cc(-n2ncc3cc(NC(=O)NCC4Cc5ccccc5N(C)C4)ncc32)ccn1 (centres unmarked) [Example 99, 1-[1-(2-methylpyridin-4-yl)-1H-pyrazolo[3,4-c]pyridin-5-yl]-3-[(1-methyl-1,2,3,4-tetrahydroquinolin-3-yl)methyl]urea]	0.00231
Cc1cc(-n2ncc3cc(NC(=O)NCc4ccc5c(c4)CNC5=O)ncc32)ccn1 [Example 84, 1-[1-(2-methylpyridin-4-yl)-1H-pyrazolo[3,4-c]pyridin-5-yl]-3-[(1-oxo-2,3-dihydro-1H-isoindol-5-yl)methyl]urea]	0.0174
O=C(NCc1ccccc1)Nc1cc2cnn(-c3ccc(F)cc3)c2cn1 [Example 37, 1-benzyl-3-[1-(4-fluorophenyl)-1H-pyrazolo[3,4-c]pyridin-5-yl)urea]	0.0198
O=C(NCc1ccc(Cl)cc1)Nc1cc2cnn(-c3ccncc3)c2cn1 [Example 42, 1-(4-chlorobenzyl)-3-(1-pyridin-4-yl-1H-pyrazolo[3,4-c]pyridin-5-yl)urea]	0.00803
C[C@@H](NC(=O)Nc1cc2cnn(-c3cnn(C)c3)c2cn1)c1ccc(F)cc1 [Example 5, 1-[(1R)-1-(4-fluorophenyl)ethyl]-3-[1-(1-methyl-1H-pyrazol-4-yl)-1H-pyrazolo[3,4-c]pyridin-5-yl)urea]	0.0122

Now from value to compound:

IC50 [µM]	SMILES
0.0253	Cc1cc(-n2ncc3cc(NC(=O)N[C@H](C)c4ccccc4)nc(COCCOCc4ccccc4)c32)ccn1 [Example 252, 1-[7-{[2-(benzyloxy)ethoxy]methyl}-1-(2-methylpyridin-4-yl)-1H-pyrazolo[3,4-c]pyridin-5-yl]-3-[(1R)-1-phenylethyl]urea]
0.745	COC[C@@H](NC(=O)Nc1cc2cnn(-c3ccnc(C)c3)c2cn1)c1ccccn1 [Example 210, 1-[(1S)-2-methoxy-1-pyridin-2-ylethyl]-3-[1-(2-methylpyridin-4-yl)-1H-pyrazolo[3,4-c]pyridin-5-yl]urea]
2.06	CO[C@H]1CN(Cc2c(F)cccc2F)C[C@@H]1NC(=O)Nc1cc2cnn(-c3ccnc(C)c3)c2cn1 (single isomer, unassigned) [Example 273, 1-[(3S,4S) or (3R, 4R)-1-(2,6-difluorobenzyl)-4-methoxypyrrolidin-3-yl]-3-[1-(2-methylpyridin-4-yl)-1H-pyrazolo[3,4-c]pyridin-5-yl]urea]
0.000182	Cc1cc(-n2ncc3cc(NC(=O)N[C@H]4CN(C)C[C@@H]4CCc4ccccc4)ncc32)ccn1 [Example 185, 1-[(3R,4S)-1-methyl-4-(2-phenylethyl)pyrrolidin-3-yl]-3-[1-(2-methylpyridin-4-yl)-1H-pyrazolo[3,4-c]pyridin-5-yl]urea]
0.0559	COCc1nc(NC(=O)N[C@H](C)c2ccccc2)cc2cnn(-c3ccc(F)cc3)c12 [Example 241, 1-[1-(4-fluorophenyl)-7-(methoxymethyl)-1H-pyrazolo[3,4-c]pyridin-5-yl]-3-[(1R)-1-phenylethyl]urea]
0.00504	Cc1cc(-n2ncc3cc(NC(=O)NCc4cccc(Cl)c4)ncc32)ccn1 [Example 215, 1-(3-chlorobenzyl)-3-[1-(2-methylpyridin-4-yl)-1H-pyrazolo[3,4-c]pyridin-5-yl]urea]
0.0116	Cc1cc(-n2ncc3cc(NC(=O)NC4CCCC(c5ccc(F)cc5)C4)ncc32)ccn1 (centres unmarked) [Example 173, 1-[3-(4-fluorophenyl)cyclohexyl]-3-[1-(2-methylpyridin-4-yl)-1H-pyrazolo[3,4-c]pyridin-5-yl]urea]
0.0432	Cc1cc(-n2ncc3cc(NC(=O)NCC4(F)CNC4)ncc32)ccn1 [Example 287, 1-[(3-fluoroazetidin-3-yl)methyl]-3-[1-(2-methylpyridin-4-yl)-1H-pyrazolo[3,4-c]pyridin-5-yl]urea]
0.0425	Cc1cc(-n2ncc3cc(NC(=O)N[C@@H](CN)c4ccccc4)ncc32)ccn1 [Example 186, 1-[(1R)-2-amino-1-phenylethyl]-3-[1-(2-methylpyridin-4-yl)-1H-pyrazolo[3,4-c]pyridin-5-yl]urea]
0.0105	Cc1cc(-n2ncc3cc(NC(=O)NC4CNCC(c5ccccc5)C4)ncc32)ccn1 (centres unmarked) [Example 288, 1-[1-(2-methylpyridin-4-yl)-1H-pyrazolo[3,4-c]pyridin-5-yl]-3-(5-phenylpiperidin-3-yl)urea]
0.242	Cc1cc(-n2ncc3cc(NC(=O)N[C@H]4CN(C)C[C@@H]4Oc4cncc(F)c4)ncc32)ccn1 [Example 276, 1-{(3S,4S)-4-[(5-fluoropyridin-3-yl)oxy]-1-methylpyrrolidin-3-yl}-3-[1-(2-methylpyridin-4-yl)-1H-pyrazolo[3,4-c]pyridin-5-yl]urea]
0.0222	Cc1cc(-n2ncc3cc(NC(=O)NC4CCCN(Cc5nccs5)C4)ncc32)ccn1 (centres unmarked) [Example 267, 1-[1-(2-methylpyridin-4-yl)-1H-pyrazolo[3,4-c]pyridin-5-yl]-3-[1-(1,3-thiazol-2-ylmethyl)piperidin-3-yl]urea]
0.873	Cc1cc(-n2ncc3cc(NC(=O)N[C@@H]4[C@@H](c5ccccc5)CN(C)C45COC5)ncc32)ccn1 [Example 184, 1-[(7S,8R)-5-methyl-7-phenyl-2-oxa-5-azaspiro[3.4]oct-8-yl]-3-[1-(2-methylpyridin-4-yl)-1H-pyrazolo[3,4-c]pyridin-5-yl]urea]
0.0241	Cc1cc(-n2ncc3cc(NC(=O)N[C@H]4CNC[C@@H]4Oc4ccc(F)cc4)ncc32)ccn1 [Example 284, 1-[(3S,4S)-4-(4-fluorophenoxy)pyrrolidin-3-yl]-3-[1-(2-methylpyridin-4-yl)-1H-pyrazolo[3,4-c]pyridin-5-yl]urea]
0.134	C[C@@H](O)[C@@H](NC(=O)Nc1cc2cn[nH]c2cn1)c1ccccc1 [Example 227, 1-((1S,2R)-2-Hydroxy-1-phenylpropyl)-3-(1H-pyrazolo[3,4-c]pyridin-5-yl)urea]
0.0449	CCn1ncc2cc(NC(=O)N[C@@H](c3ccccc3)C(C)(C)O)nc(OC)c21 [Example 257, 1-(1-ethyl-7-methoxy-1H-pyrazolo[3,4-c]pyridin-5-yl)-3-[(1S)-2-hydroxy-2-methyl-1-phenylpropyl]urea]
0.0181	CCn1ncc2cc(NC(=O)N[C@H](C)c3ccccc3)nc(CO)c21 [Example 299, 1-[1-Ethyl-7-(hydroxymethyl)-1H-pyrazolo[3,4-c]pyridin-5-yl]-3-[(1R)-1-phenylethyl]urea]
